The nature of this experiment: cell cytotoxicity, dose response, cytotoxicity control, CellTiter-Glo (AID 1259333).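 Note: 0% = vehicle neutral controls and -100% = reference inhibitor positive controls.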 Particulars: cytotoxicity, CellTiter-Glo ATP luminescence.

Active and inactive are the calls of the source. The rule behind the calls is not given here; tested in parental BL2 cells.

In the case of `COc1cccc(/C=N/Nc2ccc(C(=O)O)cc2)c1O`, under “at 10 µM (top of the series)”, the activity change, negative = cytotoxicity is 5.24% (inactive).
Same read-out and setting: with `Cc1ccc(-c2ccccc2[C@H]2[C@@H](C#N)N(c3ncc(-c4ccccc4)s3)[C@@H]2CO)cc1` the figure was 47.4% (inactive).
The same measure, in the same setting: with `C(=Cc1c[nH]c2ccccc12)c1nccc2ccccc12` the figure was 33.1% (inactive).
Turning to `CCCCn1c(NC(=O)c2ccc(Br)o2)c(S(=O)(=O)c2ccccc2)c2nc3ccccc3nc21`, for the setting “at 10 µM (top of the series)”, the activity change, negative = cytotoxicity was 62.4% (inactive).
On the same count and under the same terms, with `COc1ccc(S(=O)(=O)N(C)C[C@H]2Oc3ccc(NC(=O)Nc4ccc(C(F)(F)F)cc4)cc3C(=O)N([C@@H](C)CO)C[C@H]2C)cc1` the figure was 24.4% (inactive); with `C/C=C/c1ccc(C2[C@H]3CNC[C@@H]2N3Cc2cccc(OC)c2)cc1` (stereo not given in full), 18% (inactive).
Still for that read-out and setting: with `Cc1ccc(-c2nn3c(C)nnc3c3ccccc23)cc1S(=O)(=O)NCc1ccccc1` the figure was 16.1% (inactive).
For the molecule `C[C@@H]1CCCCO[C@@H](CN(C)CC2CCCCC2)[C@@H](C)CN([C@@H](C)CO)C(=O)c2cc(NC(=O)Nc3ccc(C(F)(F)F)cc3)ccc2O1`, the activity change, negative = cytotoxicity (at 3.5 µM (top of the series)) was 15% (inactive).
As for `N#C[C@@H]1[C@H](c2ccc(C#Cc3ccccc3F)cc2)[C@@H](CO)N1C(=O)C1CC1`, the activity change, negative = cytotoxicity (at 10 µM (top of the series)) is 38% (inactive).
Same read-out and setting: with `COc1ccc(C(=O)/C=C/C(=O)N(CC(=O)NC2CCCCC2)Cc2ccc(F)cc2)c(O)c1` the figure was 46.2% (inactive); with `O=C(CCN1CCC(c2ccccc2)C1)c1ccc2c(c1)OCCO2` (stereo not given), 28% (inactive).
For the molecule `Oc1cc(O)cc(/C=C/c2ccc(O)c(O)c2)c1`, the activity change, negative = cytotoxicity (at 10 µM (top of the series)) is 129% (inactive).
On to `O=S(c1ccccc1O)S(=O)c1ccccc1O` (stereo not given), for which, under “at 10 µM (top of the series)”, the activity change, negative = cytotoxicity is 40.7% (inactive).
The same measure, in the same setting: the figure for `Oc1ccc(Cc2ccccc2)c2cccnc12` is 41.6% (inactive).
For `CC(C)(C)c1cc(/C=C(\C#N)C(N)=S)cc(C(C)(C)C)c1O`, the activity change, negative = cytotoxicity (at 3.5 µM (top of the series)) is 26.8% (inactive).
Turning to `c1ccc(-c2ccc(-c3ccccn3)nn2)nc1`, the activity change, negative = cytotoxicity (at 10 µM (top of the series)) is -10.2% (inactive).
On the same count and under the same terms, with `c1ccc(OCCSc2nnc3sc4ccccc4n23)cc1` the figure was -14.5% (inactive).
In the case of `Cc1ccc(-c2cc(C(=O)N(C)CC(=O)Nc3ccccc3Br)c3ccccc3n2)o1`, under “at 10 µM (top of the series)”, the activity change, negative = cytotoxicity was 130% (inactive).
On the same count and under the same terms, with `CC(C)(C)n1cc(C(=O)c2ccc3ccccc3c2O)cn1` the figure was 24.3% (inactive).
For `O=C1C(=Cc2ccccc2[N+](=O)[O-])Cc2ccccc21`, for the setting “at 10 µM (top of the series)”, the activity change, negative = cytotoxicity was 161% (inactive).
Same read-out and setting: the figure for `CC1CCOC(=O)C=CC=CC(=O)OC2CC3OC4C5OC5(C)C(O)CC4(COC(=O)C1O)C2(C)C31CO1` (stereo not given) is 6.8% (inactive); for `CC(=NNc1ccc2ccccc2n1)c1ccccc1O` it is -29.4% (inactive).
On the same count and under the same terms, with `CCCCC1C(=O)NC(=S)N(C)C1=O` (stereo not given) the figure was 33.7% (inactive); with `COc1cccc(S(=O)(=O)N(C)C[C@@H]2OCc3ccccc3-c3c(n(C)c4ccccc34)C(=O)N([C@H](C)CO)C[C@H]2C)c1`, 9.22% (inactive); with `O=C1C(=NO)CCc2ccccc21`, 115% (inactive).
On to `C[C@@H]1CN([C@@H](C)CO)C(=O)Cc2cc(NS(=O)(=O)c3ccccc3)ccc2O[C@H]1CN(C)Cc1ccc(Cl)c(Cl)c1`, for which the activity change, negative = cytotoxicity (at 3.5 µM (top of the series)) was 24.1% (inactive).
Turning to `COc1cccc(S(=O)(=O)N(C)C[C@H]2OCc3ccccc3-c3c(n(C)c4ccccc34)C(=O)N([C@H](C)CO)C[C@@H]2C)c1`, where the note is “at 10 µM (top of the series)”, the activity change, negative = cytotoxicity is 20.3% (inactive).
Still for that read-out and setting: the figure for `Cc1noc(C)c1S(=O)(=O)Nc1ccc2c(c1)C(=O)N([C@H](C)CO)C[C@@H](C)[C@H](CN(C)C(=O)Nc1cccc3ccccc13)OCCCC[C@@H](C)O2` is 33.4% (inactive).
Still for that read-out and setting: with `COc1ccc2c3c(n(C)c2c1)[C@H](CO)N(C(=O)Nc1ccc(F)cc1)CC31CCN(C(=O)Nc2ccc(F)cc2F)CC1` the figure was 29.2% (inactive).
On the same count and under the same terms, with `COc1ccc(Cl)cc1NC(=O)Nc1cc(C)nc2ccccc12` the figure was 60.2% (inactive); with `COc1ccc(CN2CC3(CN(S(=O)(=O)c4ccc(C)cc4)C3)c3c([nH]c4cc(OC)ccc34)[C@H]2CO)cc1`, 20.2% (inactive).
Regarding `O=C1C=CC(=O)C2=C1C1c3ccccc3C2c2ccccc21`, under “at 10 µM (top of the series)”, the activity change, negative = cytotoxicity was 90.3% (inactive).
Regarding `COc1ccc(-c2ccc([C@H]3[C@@H](C#N)N(C(=O)c4cccc(F)c4)[C@H]3CO)cc2)cc1`, the activity change, negative = cytotoxicity (at 11 µM (top of the series)) is 24% (inactive).
As to `N#C[C@H]1[C@H](c2ccc(C#Cc3ccc(F)cc3)cc2)[C@@H](CO)N1C(=O)C1CCC1`, under “at 10 µM (top of the series)”, the activity change, negative = cytotoxicity is -4.11% (inactive).
The same measure, in the same setting: with `CCc1cnc(N2[C@H](C#N)[C@H](c3ccc(C#Cc4ccccc4F)cc3)[C@H]2CO)s1` the figure was 12.3% (inactive); with `Nc1ccc(-c2cccc3c(=O)cc(N4CCOCC4)oc23)cc1`, 15.1% (inactive).
For `C[C@@H]1CN([C@H](C)CO)C(=O)Cc2cc(NC(=O)Cc3cn(C)c4ccccc34)ccc2O[C@H]1CN(C)Cc1ccc(C(F)(F)F)cc1`, under “at 11 µM (top of the series)”, the activity change, negative = cytotoxicity is 6.35% (inactive).
Turning to `N#Cc1ccc(-c2ccc3c(c2)[C@H]2[C@H](CCN2C(=O)C2CC2)[C@@H](CO)N3)cc1`, for the setting “at 10 µM (top of the series)”, the activity change, negative = cytotoxicity was 66.9% (inactive).
Same read-out and setting: the figure for `N#Cc1cccc(-c2ccc([C@@H]3[C@@H]4CN(S(=O)(=O)c5ccc(-c6ccccc6)cc5)C[C@H]3N4)cc2)c1` is 25.4% (inactive); for `CC(C)CC#Cc1ccc([C@@H]2[C@H]3CN(C(=O)Nc4ccccc4)CCCCN3[C@H]2CO)cc1` it is 40.2% (inactive).
Same read-out and setting: the figure for `O=C(Nc1nnc(C2CC2)s1)C1CC(=O)N(c2ccc3c(c2)OCCO3)C1` (stereo not given) is 52.3% (inactive); for `O=C(CNC(=O)c1ccco1)Nc1ccc2c(c1)OCCO2` it is -6.17% (inactive).
Same read-out and setting: with `Cc1noc(C)c1S(=O)(=O)Nc1ccc2c(c1)C(=O)N([C@@H](C)CO)C[C@@H](C)[C@@H](CN(C)C(=O)Nc1cccc3ccccc13)OCCCC[C@H](C)O2` the figure was 25.9% (inactive); with `CCCn1c(NC(=O)c2cccc(S(=O)(=O)N3CCCC3)c2)nc2ccccc21`, 12.5% (inactive); with `O=C(C[C@H]1CC[C@@H]2[C@H](COC[C@H](O)CN2Cc2cc(F)ccc2F)O1)NCc1ccc(Oc2ccccc2)cc1`, 17% (inactive).
For `C[C@H]1CCCC(=O)CCC/C=C/c2cc(O)cc(O)c2C(=O)O1`, the activity change, negative = cytotoxicity (at 10 µM (top of the series)) was 29.3% (inactive).
The same measure, in the same setting: the figure for `C[C@H]1CCCCO[C@H](CN(C)Cc2ccc(C(F)(F)F)cc2)[C@@H](C)CN([C@@H](C)CO)C(=O)c2cc(NC(=O)Nc3cccc4ccccc34)ccc2O1` is 29.1% (inactive).
`Cc1nc(-c2ccc(OCC(C)C)c(C#N)c2)sc1C(=O)O`: the activity change, negative = cytotoxicity (at 10 µM (top of the series)) was 23.3% (inactive).
Regarding `C[C@@H]1CCCCO[C@@H](CN(C)C(=O)C2CCCCC2)[C@@H](C)CN([C@H](C)CO)C(=O)c2cc(NS(=O)(=O)c3ccccc3)ccc2O1`, the activity change, negative = cytotoxicity (at 3.5 µM (top of the series)) is 22.5% (inactive).
Turning to `Cc1cnc(NC(=O)c2ccc(OCC3CCCO3)cc2)s1` (stereo not given), for the setting “at 10 µM (top of the series)”, the activity change, negative = cytotoxicity was 5.83% (inactive).
On the same count and under the same terms, with `CSC1SCC2C(=O)N(C)C(C(C)C)C(=O)OCC(NC(=O)c3cnc4ccccc4n3)C(=O)NC(C)C(=O)N(C)C1C(=O)N(C)C(C(C)C)C(=O)OCC(NC(=O)c1cnc3ccccc3n1)C(=O)NC(C)C(=O)N2C` (stereo not given) the figure was 62.7% (inactive).
Consider `O=C(Nc1ccc2c(c1)OCCO2)C1CCCC1`, for which the activity change, negative = cytotoxicity (at 10 µM (top of the series)) is 9.1% (inactive).
Still for that read-out and setting: the figure for `CN(C)c1ccc(NC(=O)c2cnsn2)cc1` is 17.7% (inactive); for `N#Cc1cccc(-c2ccc(C3[C@@H]4CN(C(=O)Nc5ccc(C(F)(F)F)cc5)C[C@H]3N4)cc2)c1` (stereo not given in full) it is -11.5% (inactive).
As to `N#C[C@@H]1[C@@H](c2ccccc2-c2ccc(F)cc2)[C@H](CO)N1C(=O)NC1CCCCC1`, the activity change, negative = cytotoxicity (at 11 µM (top of the series)) is 19.3% (inactive).
Turning to `CCN1C(=O)C(CC(=O)Nc2ccc(F)cc2)N(Cc2ccco2)C1=S` (stereo not given), the activity change, negative = cytotoxicity (at 10 µM (top of the series)) was 18% (inactive).
The same measure, in the same setting: the figure for `COCCn1c(C)cc(C(=O)COC(=O)c2ccc(Br)o2)c1C` is 28.5% (inactive); for `COc1cccc2c1C(=O)c1c(O)c3c(c(O)c1C2=O)C[C@@](O)(C(C)=O)C[C@@H]3O[C@H]1C[C@H](N)[C@H](O)[C@H](C)O1` it is 13.8% (inactive); for `C[C@H]1CN([C@@H](C)CO)C(=O)Cc2cc(NS(=O)(=O)c3cccs3)ccc2O[C@@H]1CN(C)Cc1ccc(Cl)c(Cl)c1` it is 29.8% (inactive).
`C[C@@H]1CN([C@@H](C)CO)C(=O)c2c(c3ccccc3n2C)-c2ccccc2CO[C@H]1CN(C)Cc1cccc(C(=O)Nc2ccccc2N)c1`: for the setting “at 10 µM (top of the series)”, the activity change, negative = cytotoxicity is 26.3% (inactive).
The same measure, in the same setting: the figure for `c1ccc2c(c1)OCC(C1=NCCN1)O2` (stereo not given) is 56.8% (inactive).
Take `Cc1[nH]c2ccccc2c1C(c1ccccn1)N1CCC(C(N)=O)CC1` (stereo not given): the activity change, negative = cytotoxicity (at 3.5 µM (top of the series)) was 29.7% (inactive).
Take `C[C@H](CO)N1C[C@H](C)[C@H](CN(C)C(=O)C2CCOCC2)Oc2ncc(C#CCc3ccccc3)cc2C1=O`: where the note is “at 10 µM (top of the series)”, the activity change, negative = cytotoxicity is 0.181% (inactive).
Same read-out and setting: the figure for `COc1cccc(OC)c1OCCNCC1COc2ccccc2O1` (stereo not given) is 48.7% (inactive); for `COC(=O)c1ccc2c(=O)[nH]c(COC(=O)c3c(-c4ccccc4)noc3C)nc2c1` it is 11% (inactive).

(Values after PubChem BioAssay AID1259333 (Broad Institute, 2017).)
